Results reported in paper PMC10764907, “Aryl-quinoline-4-carbonyl hydrazone bearing different 2-methoxyphenoxyacetamides as potent α-glucosidase inhibitors; molecular dynamics, kinetic and structure–activity relationship studies” (Scientific Reports, 2024).
Where two headings read alike, the source gives them in different places.

How the values were obtained:
α-glucosidase [1] = target: T1, α-glucosidase (Saccharomyces cerevisiae, UniProt P53341); assay: biochemical; format: biochemical; conditions: for IC50: α-glucosidase inhibition, mean ± SD
T1 sequence (P53341 whole entry): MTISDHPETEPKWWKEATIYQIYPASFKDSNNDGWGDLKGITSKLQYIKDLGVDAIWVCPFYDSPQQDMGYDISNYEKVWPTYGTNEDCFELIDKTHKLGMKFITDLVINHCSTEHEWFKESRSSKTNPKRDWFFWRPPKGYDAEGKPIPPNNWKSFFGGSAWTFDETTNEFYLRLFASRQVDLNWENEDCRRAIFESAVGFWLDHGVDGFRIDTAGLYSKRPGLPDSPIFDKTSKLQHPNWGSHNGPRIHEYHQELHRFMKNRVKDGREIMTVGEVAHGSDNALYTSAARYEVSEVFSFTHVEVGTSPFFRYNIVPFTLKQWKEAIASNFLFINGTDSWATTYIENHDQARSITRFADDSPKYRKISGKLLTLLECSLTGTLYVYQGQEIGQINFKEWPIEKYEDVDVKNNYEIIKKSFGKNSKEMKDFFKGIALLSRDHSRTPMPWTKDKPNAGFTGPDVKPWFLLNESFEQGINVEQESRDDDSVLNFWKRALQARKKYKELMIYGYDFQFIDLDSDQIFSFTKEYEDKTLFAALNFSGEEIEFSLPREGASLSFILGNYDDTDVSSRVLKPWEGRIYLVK

[2] = Concentrations of precipitation in the α-glucosidase inhibition assay; format: physicochemical
Source text: Table 1 The α-glucosidase inhibition assay of 11a–o. | column: Concentrations of precipitation (µM)

α-glucosidase [3] = target: T1, α-glucosidase; conditions: cited from earlier work; for IC50: Fig. 1
α-amylase = tested on: α-amylase; set-up: method as in doi:10.1016/j.molstruc.2022.133650; conditions: at 108 μM; cited from earlier work
α-glucosidase [4] = target: T1, α-glucosidase; assay: Enzyme kinetic studies (Lineweaver–Burk plot, secondary plot); format: biochemical
Source text: This pattern indicates a competitive inhibition mechanism. […] Additionally, by plotting the Km values against different inhibitor concentrations, an estimation of the inhibition constant (Ki) was obtained.

[5] = previously reported quinoline inhibitors

| SMILES | melting point | IC50 (α-glucosidase [1]) | Concentrations of precipitation [2] | other results |
| --- | --- | --- | --- | --- |
| O=C(O)c1ccc2ccccc2n1 [A] |  |  |  | IC50 (α-glucosidase [3]; [5]): 9.1 µM |
| COc1ccc(-c2cc(C(=O)NN=Cc3ccc(OCC(=O)Nc4ccccc4)c(OC)c3)c3ccccc3n2)cc1 [11h, 2-(2-methoxy-4-((2-(2-(4-methoxyphenyl)quinoline-4-carbonyl)hydrazono)methyl)phenoxy)-N-phenylacetamide] | > 250 °C | 62.4 ± 0.9 µM | ≥ 375 µM | fold more potent vs positive control (α-glucosidase [1]; vs acarbose): more than 11 fold |
| COc1ccc(-c2nc3cc(C(=O)N/N=C/c4ccc(O)c(OC)c4)ccc3[nH]2)cc1 [F] |  |  |  | IC50 (α-glucosidase [3]): 60.1 µM |
| O=C(O)c1cnc2ccccc2c1 [B] |  |  |  | IC50 (α-glucosidase [3]; [5]): 10.6 µM |
| COc1cc(/C=N/NC(=O)CC#N)ccc1OCc1cn(Cc2ccc(Cl)cc2)nn1 [G] |  |  |  | IC50 (α-glucosidase [3]): 1 µM |
| O=C(NCCCC1OC(CO)C(O)C(O)C1O)c1cc(-c2ccccc2)nc2ccccc12 (centres unmarked) [D] |  |  |  | IC50 (α-glucosidase [3]): 7.98 µM |
| O=C(CSc1nc2ccccc2cc1-c1nc2ccccc2[nH]1)Nc1ccc2ccccc2c1 [C] |  |  |  | IC50 (α-glucosidase [3]): 3.2 µM |
| CCc1ccc(NC(=O)Cn2cc(COc3ccc(-c4nc5ccccc5[nH]4)cc3)nn2)cc1 [H] |  |  |  | Ki (α-glucosidase [3]): 23 µM; mode of inhibition (α-glucosidase [3]): competitive |
| O=C(N/N=C/c1cccc(F)c1)c1ccc2nc(-c3ccccc3)c(-c3ccccc3)nc2c1 [E] |  |  |  | IC50 (α-glucosidase [3]): 111 µM |
| COc1cc(-c2nc3ccccc3[nH]2)ccc1OCC(=O)Nc1ccc(F)cc1 [I] |  |  |  | α-amylase inhibition (α-amylase): 45.0 ± 0.8%; IC50 (α-glucosidase [3]): 99.6 µM; Ki (α-glucosidase [3]): 67 µM; mode of inhibition (α-glucosidase [3]): competitive |
| CCc1ccc(NC(=O)COc2ccc(C=NNC(=O)c3cc(-c4ccc(OC)cc4)nc4ccccc34)cc2OC)cc1 [11k, N-(4-ethylphenyl)-2-(2-methoxy-4-((2-(2-(4-methoxyphenyl)quinoline-4-carbonyl)hydrazono)methyl)phenoxy)acetamide] | > 250 °C | 26 ± 0.8 µM |  | Ki (α-glucosidase [4]): 25.6 µM; mode of inhibition (α-glucosidase [4]; Lineweaver–Burk plot): competitive |
| COc1cc(-c2nc3ccccc3c(=O)[nH]2)ccc1OCC(=O)Nc1ccccc1F [J] |  |  |  | IC50 (α-glucosidase [3]): 14.4 µM |

The next lines start with results.

| melting point | IC50 (α-glucosidase [1]) | Concentrations of precipitation [2] | SMILES | other results |
| --- | --- | --- | --- | --- |
| > 250 °C | 152 ± 1.7 µM | ≥ 190 µM | COc1ccc(-c2cc(C(=O)NN=Cc3ccc(OCC(=O)Nc4ccc(Br)cc4)c(OC)c3)c3ccccc3n2)cc1 [11m, N-(4-bromophenyl)-2-(2-methoxy-4-((2-(2-(4-methoxyphenyl)quinoline-4-carbonyl)hydrazono)methyl)phenoxy)acetamide] |  |
| > 250 °C | 61.8 ± 0.5 µM | ≥ 190 µM | COc1ccc(NC(=O)COc2ccc(C=NNC(=O)c3cc(-c4ccc(OC)cc4)nc4ccccc34)cc2OC)cc1 [11j, 2-(2-methoxy-4-((2-(2-(4-methoxyphenyl)quinoline-4-carbonyl)hydrazono)methyl)phenoxy)-N-(4-methoxyphenyl)acetamide] |  |
| > 250 °C | 48.7 ± 0.9 µM | ≥ 190 µM | COc1ccc(-c2cc(C(=O)NN=Cc3ccc(OCC(=O)Nc4ccc(Cl)cc4)c(OC)c3)c3ccccc3n2)cc1 [11n, N-(4-chlorophenyl)-2-(2-methoxy-4-((2-(2-(4-methoxyphenyl)quinoline-4-carbonyl)hydrazono)methyl)phenoxy)acetamide] |  |
| > 250 °C | 180.9 ± 1.7 µM | ≥ 375 µM | COc1cc(C=NNC(=O)c2cc(-c3ccccc3)nc3ccccc23)ccc1OCC(=O)Nc1ccc(Br)cc1 [11g, N-(4-bromophenyl)-2-(2-methoxy-4-((2-(2-phenylquinoline-4-carbonyl)hydrazineylidene)methyl)phenoxy)acetamide] |  |
| > 250 °C | 459.8 ± 1.5 µM |  | COc1ccc(-c2cc(C(=O)NN=Cc3ccc(OCC(=O)Nc4ccc([N+](=O)[O-])cc4)c(OC)c3)c3ccccc3n2)cc1 [11o, 2-(2-methoxy-4-((2-(2-(4-methoxyphenyl)quinoline-4-carbonyl)hydrazono)methyl)phenoxy)-N-(4-nitrophenyl)acetamide] |  |
| > 250 °C | 52.6 ± 0.6 µM |  | COc1cc(C=NNC(=O)c2cc(-c3ccccc3)nc3ccccc23)ccc1OCC(=O)Nc1ccc(F)cc1 [11e, N-(4-fluorophenyl)-2-(2-methoxy-4-((2-(2-phenylquinoline-4-carbonyl)hydrazono)methyl)phenoxy)acetamide] |  |
| > 250 °C | 71.2 ± 0.6 µM |  | COc1ccc(-c2cc(C(=O)NN=Cc3ccc(OCC(=O)Nc4ccccc4C)c(OC)c3)c3ccccc3n2)cc1 [11i, 2-(2-methoxy-4-((2-(2-(4-methoxyphenyl)quinoline-4-carbonyl)hydrazono)methyl)phenoxy)-N-(o-tolyl)acetamide] |  |
| > 250 °C | 43.7 ± 1 µM |  | COc1ccc(NC(=O)COc2ccc(C=NNC(=O)c3cc(-c4ccccc4)nc4ccccc34)cc2OC)cc1 [11c, 2-(2-methoxy-4-((2-(2-phenylquinoline-4-carbonyl)hydrazineylidene)methyl)phenoxy)-N-(4-methoxyphenyl)acetamide] |  |
| > 250 °C | 34.8 ± 1.1 µM |  | COc1cc(C=NNC(=O)c2cc(-c3ccccc3)nc3ccccc23)ccc1OCC(=O)Nc1ccccc1C [11a, 2-(2-methoxy-4-((2-(2-phenylquinoline-4-carbonyl)hydrazineylidene)methyl)phenoxy)-N-(o-tolyl)acetamide] |  |
| > 250 °C | 95.2 ± 1.2 µM | ≥ 375 µM | COc1cc(C=NNC(=O)c2cc(-c3ccccc3)nc3ccccc23)ccc1OCC(=O)Nc1ccc(C)cc1 [11b, 2-(2-methoxy-4-((2-(2-phenylquinoline-4-carbonyl)hydrazono)methyl)phenoxy)-N-(p-tolyl)acetamide] |  |
| > 250 °C | > 750 µM | ≥ 375 µM | COc1cc(C=NNC(=O)c2cc(-c3ccccc3)nc3ccccc23)ccc1OCC(=O)Nc1ccc(Cl)cc1 [11f, N-(4-chlorophenyl)-2-(2-methoxy-4-((2-(2-phenylquinoline-4-carbonyl)hydrazono)methyl)phenoxy)acetamide] |  |
| > 250 °C | > 750 µM | ≥ 190 µM | COc1ccc(-c2cc(C(=O)NN=Cc3ccc(OCC(=O)Nc4ccc(F)cc4)c(OC)c3)c3ccccc3n2)cc1 [11l, N-(4-fluorophenyl)-2-(2-methoxy-4-((2-(2-(4-methoxyphenyl)quinoline-4-carbonyl)hydrazono)methyl)phenoxy)acetamide] |  |
| > 250 °C | 156.8 ± 1.5 µM | ≥ 375 µM | CCc1ccc(NC(=O)COc2ccc(C=NNC(=O)c3cc(-c4ccccc4)nc4ccccc34)cc2OC)cc1 [11d, N-(4-ethylphenyl)-2-(2-methoxy-4-((2-(2-phenylquinoline-4-carbonyl)hydrazono)methyl)phenoxy)acetamide] |  |
